Experiments:
human TLR9 = target: T1, human TLR9 (Homo sapiens, UniProt Q9NR96); assay: TLR9 inhibition reporter assay (HEK-Blue cells, SEAP reporter); format: cell-based; settings: HEK-Blue cells overexpressing human TLR9, stimulated with ODN2006 5 nM, 22 hour incubation
T1 construct: host or cells: HEK-Blue cells
T1 sequence (Q9NR96 26-1032): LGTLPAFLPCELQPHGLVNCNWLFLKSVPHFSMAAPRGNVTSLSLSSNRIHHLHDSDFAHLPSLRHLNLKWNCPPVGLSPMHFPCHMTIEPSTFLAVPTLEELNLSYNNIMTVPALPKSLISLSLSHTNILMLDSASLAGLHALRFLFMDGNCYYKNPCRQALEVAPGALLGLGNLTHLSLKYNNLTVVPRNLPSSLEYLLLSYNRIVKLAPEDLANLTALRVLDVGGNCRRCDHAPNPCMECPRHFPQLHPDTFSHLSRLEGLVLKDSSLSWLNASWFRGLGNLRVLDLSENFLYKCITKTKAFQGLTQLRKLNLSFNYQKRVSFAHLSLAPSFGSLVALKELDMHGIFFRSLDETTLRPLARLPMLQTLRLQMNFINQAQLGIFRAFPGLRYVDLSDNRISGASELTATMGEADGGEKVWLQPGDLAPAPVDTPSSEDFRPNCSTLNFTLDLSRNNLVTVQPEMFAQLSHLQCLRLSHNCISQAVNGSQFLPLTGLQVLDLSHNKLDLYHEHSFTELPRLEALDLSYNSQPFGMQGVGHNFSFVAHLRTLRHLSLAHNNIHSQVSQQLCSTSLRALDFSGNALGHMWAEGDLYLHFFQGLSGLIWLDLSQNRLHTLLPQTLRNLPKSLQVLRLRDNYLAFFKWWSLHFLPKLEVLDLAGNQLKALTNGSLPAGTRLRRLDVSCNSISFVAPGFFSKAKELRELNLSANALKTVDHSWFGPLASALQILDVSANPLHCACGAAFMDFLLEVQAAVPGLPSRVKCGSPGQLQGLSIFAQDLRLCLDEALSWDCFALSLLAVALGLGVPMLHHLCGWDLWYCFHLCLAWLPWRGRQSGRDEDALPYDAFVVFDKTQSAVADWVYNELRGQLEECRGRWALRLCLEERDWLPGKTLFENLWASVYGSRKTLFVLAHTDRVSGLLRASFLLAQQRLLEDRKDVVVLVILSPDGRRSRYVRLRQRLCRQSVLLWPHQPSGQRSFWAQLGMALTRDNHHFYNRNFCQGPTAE
Summary of the method: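 Compound dose-response (0.05 nM–50 μM final) on agonist-stimulated human TLR9 HEK-Blue cells, 25,000/well, incubated 22 h at 37 °C, 5% CO2. Readout was secreted alkaline phosphatase under an IFN-β minimal promoter with NF-κB/AP-1 sites; inhibition expressed relative to DMSO and reference-inhibitor controls.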

human TLR7 = target: T2, human TLR7 (Homo sapiens, UniProt Q9NYK1); assay: TLR7 inhibition reporter assay (HEK-Blue cells, SEAP reporter); format: cell-based; settings: HEK-Blue cells overexpressing human TLR7, stimulated with gardiquimod 7.5 μM, 22 hour incubation
T2 construct: host or cells: HEK-Blue cells
T2 sequence (Q9NYK1 27-1049): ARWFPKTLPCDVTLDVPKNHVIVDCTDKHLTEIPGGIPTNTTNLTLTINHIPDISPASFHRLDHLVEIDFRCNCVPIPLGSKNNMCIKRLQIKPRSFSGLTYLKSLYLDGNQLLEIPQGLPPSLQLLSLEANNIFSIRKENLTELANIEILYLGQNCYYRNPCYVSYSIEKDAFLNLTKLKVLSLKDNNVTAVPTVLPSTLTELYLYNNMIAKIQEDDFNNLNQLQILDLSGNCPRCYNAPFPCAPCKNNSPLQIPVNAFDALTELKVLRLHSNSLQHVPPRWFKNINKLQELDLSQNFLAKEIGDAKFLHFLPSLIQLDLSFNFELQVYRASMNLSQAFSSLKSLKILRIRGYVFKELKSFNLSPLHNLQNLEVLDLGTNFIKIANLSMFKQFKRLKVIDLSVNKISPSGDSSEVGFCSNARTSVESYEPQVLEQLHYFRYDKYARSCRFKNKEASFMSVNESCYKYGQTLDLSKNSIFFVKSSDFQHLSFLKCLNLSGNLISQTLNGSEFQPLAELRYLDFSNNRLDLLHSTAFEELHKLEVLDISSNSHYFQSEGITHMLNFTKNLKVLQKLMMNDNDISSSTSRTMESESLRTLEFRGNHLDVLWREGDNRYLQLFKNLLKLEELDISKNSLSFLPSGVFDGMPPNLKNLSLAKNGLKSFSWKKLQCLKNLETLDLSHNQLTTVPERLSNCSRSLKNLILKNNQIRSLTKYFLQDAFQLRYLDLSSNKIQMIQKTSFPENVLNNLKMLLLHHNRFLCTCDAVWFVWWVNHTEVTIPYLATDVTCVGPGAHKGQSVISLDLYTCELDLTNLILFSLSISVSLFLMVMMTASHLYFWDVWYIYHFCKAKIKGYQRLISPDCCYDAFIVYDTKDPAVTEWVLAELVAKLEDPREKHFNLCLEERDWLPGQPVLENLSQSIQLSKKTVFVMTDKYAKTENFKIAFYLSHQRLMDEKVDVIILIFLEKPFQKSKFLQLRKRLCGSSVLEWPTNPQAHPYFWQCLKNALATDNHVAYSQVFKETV
Summary of the method: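 Dose–response from 0.05 nM to 50 μM was run in HEK-Blue human TLR7, TLR8 and TLR9 reporter cells. After 30 min at room temperature with compound, ligand was added (TLR7 gardiquimod 7.5 μM; TLR8 R848 15.9 μM; TLR9 ODN2006 5 nM) and SEAP measured next day, at 22 h.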

Row | Compound | IC50 (human TLR9) | IC50 (human TLR7)
1 | CC(C)N1CCN(c2ccc(-c3cc4c(cn3)cc(-c3ccc(S(C)(=O)=O)cc3)n4C)cc2)CC1 [Example 54, 6-(4-(4-isopropylpiperazin-1-yl)phenyl)-1-methyl-2-(4-(methylsulfonyl)phenyl)-1H-pyrrolo[3,2-c]pyridine] | 0.042 µM | 4.6 µM
2 | COc1ccc(-c2cc3cnc(C4CCN(Cc5ccc(C(F)(F)F)nc5)CC4)cc3n2C)cc1OC [Example 28, 2-(3,4-dimethoxyphenyl)-1-methyl-6-(1-((6-(trifluoromethyl)pyridin-3-yl)methyl)piperidin-4-yl)-1H-pyrrolo[3,2-c]pyridine] | 0.269 µM | > 50 µM
3 | COc1ccc(-c2cc3cnc(C4CCN(C5CCN(C(=O)c6ccccc6)CC5)CC4)cc3n2C)cc1OC [Example 26, (4-(2-(3,4-dimethoxyphenyl)-1-methyl-1H-pyrrolo[3,2-c]pyridin-6-yl)-[1,4′-bipiperidin]-1′-yl)(phenyl)methanone] | 0.009 µM | 7.3 µM
4 | Cc1nc(-c2ccc(CN3CCN(CCC(C)(C)O)CC3)cc2)cc2c1cc(-c1ccc(S(C)(=O)=O)cc1)n2C1CC1 [Example 116, 4-[4-[[4-[1-cyclopropyl-4-methyl-2-(4-methylsulfonylphenyl)pyrrolo[3,2-c]pyridin-6-yl]phenyl]methyl]piperazin-1-yl]-2-methyl-butan-2-ol] | 0.059 µM | 3.2 µM
5 | Cc1nc(-c2ccc(C3(O)CCN(C(C)(C)C)CC3)c(F)c2)cc2c1cc(-c1ccc(S(C)(=O)=O)cc1)n2C [Example 104, 1-(tert-butyl)-4-(4-(1,4-dimethyl-2-(4-(methylsulfonyl)phenyl)-1H-pyrrolo[3,2-c]pyridin-6-yl)-2-fluorophenyl)piperidin-4-ol] | 0.161 µM | 2.2 µM
6 | Cc1nc(-c2ccc(CN3C[C@@H]4CC[C@H]3CN4CCC(C)(C)O)cc2)cc2c1cc(-c1ccc(S(C)(=O)=O)cc1)n2C [Example 61, 4-((1S,4S)-5-(4-(1,4-dimethyl-2-(4-(methylsulfonyl)phenyl)-1H-pyrrolo[3,2-c]pyridin-6-yl)benzyl)-2,5-diazabicyclo[2.2.2]octan-2-yl)-2-methylbutan-2-ol] | 0.109 µM | 3.1 µM
7 | COc1ccc(-c2cc3cnc(C4CCN(C(=O)CN5CCCCC5)CC4)cc3n2C)cc1OC [Example 25, 1-(4-(2-(3,4-dimethoxyphenyl)-1-methyl-1H-pyrrolo[3,2-c]pyridin-6-yl)piperidin-1-yl)-2-(piperidin-1-yl)ethan-1-one] | 0.197 µM | 4.5 µM
8 | Cc1nc(-c2ccc(C3CCN(CCCO)CC3)cc2)cc2c1cc(-c1ccc(S(C)(=O)=O)cc1)n2C [Example 41, 3-(4-(4-(1,4-Dimethyl-2-(4-(methylsulfonyl)phenyl)-1H-pyrrolo[3,2-c]pyridin-6-yl)phenyl)piperidin-1-yl)propan-1-ol] | 0.236 µM | 4.9 µM
9 | Cc1nc(-c2ccc(N3CCN(CC(C)C)CC3)c(F)c2F)cc2c1cc(-c1ccc(S(C)(=O)=O)cc1)n2C [Example 82, 6-(2,3-difluoro-4-(4-isobutylpiperazin-1-yl)phenyl)-1,4-dimethyl-2-(4-(methylsulfonyl)phenyl)-1H-pyrrolo[3,2-c]pyridine] | 0.329 µM | 6.4 µM
10 | COc1ccc(-c2c(C)[nH]c3cnc(C4CCN(C5CCN(C(=O)C(C)C)CC5)CC4)cc23)cc1OC [Example 15, 1-(4-(3-(3,4-dimethoxyphenyl)-2-methyl-1H-pyrrolo[2,3-c]pyridin-5-yl)-[1,4′-bipiperidin]-1′-yl)-2-methylpropan-1-one] | 0.039 µM | 14 µM
11 | CC(C)CN1CCN(c2ccc(-c3cc4c(cn3)cc(-c3ccc(S(C)(=O)=O)cc3)n4C)cc2)CC1 [Example 53, 6-(4-(4-isobutylpiperazin-1-yl)phenyl)-1-methyl-2-(4-(methylsulfonyl)phenyl)-1H-pyrrolo[3,2-c]pyridine] | 0.021 µM | > 50 µM
12 | COc1ccc(-c2[nH]c3cnc(-c4ccc(N5CCN(C(C)C)CC5)cc4)cc3c2C)cc1OC [Example 1, 2-(3,4-Dimethoxyphenyl)-5-(4-(4-isopropylpiperazin-1-yl)phenyl)-3-methyl-1H-pyrrolo[2,3-c]pyridine] | 0.161 µM | 1.7 µM
13 | Cc1nc(-c2ccc(CN3CCN(CC(C)C)CC3)cc2)cc2c1cc(-c1ccc(S(C)(=O)=O)cc1)n2C [Example 57, 6-(4-((4-isobutylpiperazin-1-yl)methyl)phenyl)-1,4-dimethyl-2-(4-(methylsulfonyl)phenyl)-1H-pyrrolo[3,2-c]pyridine] | 0.046 µM | 6 µM
14 | COc1ccc(-c2c(C)[nH]c3cnc(C4CCN(C(=O)C5CCN(C6CC6)CC5)CC4)cc23)cc1OC [Example 5, (1-Cyclopropylpiperidin-4-yl)(4-(3-(3,4-dimethoxyphenyl)-2-methyl-1H-pyrrolo[2,3-c]pyridin-5-yl)piperidin-1-yl)methanone] | 0.133 µM | 8.2 µM
15 | Cc1nc(-c2ccc(C3(O)CCN(C(C)C)CC3)cc2F)cc2c1cc(-c1ccc(S(C)(=O)=O)cc1)n2C [Example 109, 4-(4-(1,4-dimethyl-2-(4-(methylsulfonyl)phenyl)-1H-pyrrolo[3,2-c]pyridin-6-yl)-3-fluorophenyl)-1-isopropylpiperidin-4-ol] | 0.188 µM | 1.3 µM
16 | COCCN1CCN(c2ccc(-c3cc4c(cc(-c5ccc(S(=O)(=O)C6CC6)cc5)n4C)c(C)n3)cc2)CC1 [Example 48, 2-(4-(cyclopropylsulfonyl)phenyl)-6-(4-(4-(2-methoxyethyl)piperazin-1-yl)phenyl)-1,4-dimethyl-1H-pyrrolo[3,2-c]pyridine] | 0.385 µM | 2.1 µM
17 | COc1ccc(-c2c(C)[nH]c3cnc(C4CCN(C(=O)CN5CCCCC5)CC4)cc23)cc1OC [Example 16, 1-(4-(3-(3,4-dimethoxyphenyl)-2-methyl-1H-pyrrolo[2,3-c]pyridin-5-yl)piperidin-1-yl)-2-(piperidin-1-yl)ethan-1-one] | 0.084 µM | 5.7 µM
18 | Cc1nc(-c2ccc(CN3CCN(CCC(C)(C)O)CC3)cc2)cc2c1cc(-c1ccc(S(C)(=O)=O)cc1)n2C [Example 60, 4-(4-(4-(1,4-dimethyl-2-(4-(methylsulfonyl)phenyl)-1H-pyrrolo[3,2-c]pyridin-6-yl)benzyl)piperazin-1-yl)-2-methylbutan-2-ol] | 0.064 µM | 5.4 µM
